{"source": "paper PMC4004541", "about": "“PEG-Like Nanoprobes: Multimodal, Pharmacokinetically and Optically Tunable Nanomaterials” (PLoS ONE, 2014)", "test_system": "mCherry/HT29 cells", "test": "Confocal microscopy of mCherry/HT29 tumor sections", "format": "in vivo, nude mice", "conditions": "tumor collected 48 h post IV injection", "procedure": "With skin removed, an overlay of tumor mCherry (green) and PN(545)10.0 (purple) gave a white superimposition. To determine the cells responsible for the accumulation of PN(783)10.0 seen with surface fluorescence ( Figure 5C ), we employed confocal microscopy of mCherry/HT29 tumor sections ( Figure 5D ).\nThe mCherry-HT-29 tumor sample was collected at 48 h post IV injection with PN(497)10.0, and then cryosectioned with thickness of 5 µm. The tumor section was fixed with 4% PFA, mounted with 90% glycerol/10% PBS (at pH 8.5 for best fluorescein fluorescence), and stained with DAPI. Confocal imaging was performed on a Zeiss LSM510 laser scanning confocal microscope (Zeiss Axiophot, Carl Zeiss, Jena, Germany). A 405 nm diode Laser, 488 nm argon laser, and 561 nm diode laser were used for the excitation of DAPI, fluorescein, and mCherry, respectively. A primary dichroic HFT 405/488/561 was used in combination with an LP420 emission filter for DAPI, BP505-530 for fluorescein, and LP575 for mCherry. Images were analyzed with ImageJ64.\nConfocal imaging: The mCherry-HT-29 tumor sample was collected at 48 h post IV injection with PN(497)10.0, and then cryosectioned with thickness of 5 µm. The tumor section was fixed with 4% PFA, mounted with 90% glycerol/10% PBS (at pH 8.5 for best fluorescein fluorescence), and stained with DAPI. […] Images were analyzed with ImageJ64."}
{"substance": "(DOTA)Lys(PEG 30 kDa)-Cys(Fl) [PN(497)10.0, PEG-like Nanoprobe: 30 kDa PEG, fluorescein, DOTA peptide]", "values": [{"measurement": "Cellular localisation in tumor sections", "result": "seen in mCherry/HT29 cells"}]}
